PubChem BioAssay (NCI)
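Grown in 96-well plates, cells were treated for 48 hours with each compound at five concentrations. Insufficient inhibition: endpoint recorded as highest concentration tested. TGI is the concentration that stops growth completely.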

Legend:
Test in all cases: DTP human tumour cell line panel, 48 h
MDA-MB-435 = test system: MDA-MB-435
SK-MEL-2 melanoma = test system: SK-MEL-2 melanoma
LOX IMVI melanoma = test system: LOX IMVI melanoma
OVCAR-8 ovarian = test system: OVCAR-8 ovarian
EKVX NSCLC = test system: EKVX NSCLC
HOP-62 NSCLC = test system: HOP-62 NSCLC
SNB-19 CNS = test system: SNB-19 CNS
KM12 colon = test system: KM12 colon
SF-539 CNS = test system: SF-539 CNS
U251 CNS = test system: U251 CNS
CCRF-CEM leukemia = test system: CCRF-CEM leukemia
HS 578T breast = test system: HS 578T breast
SR leukemia = test system: SR leukemia
SF-295 CNS = test system: SF-295 CNS
PC-3 prostate = test system: PC-3 prostate
NCI/ADR-RES ovarian = test system: NCI/ADR-RES ovarian
ACHN renal = test system: ACHN renal
HCC-2998 colon = test system: HCC-2998 colon
RPMI-8226 leukemia = test system: RPMI-8226 leukemia
SK-MEL-28 melanoma = test system: SK-MEL-28 melanoma
MOLT-4 leukemia = test system: MOLT-4 leukemia
A549 NSCLC = test system: A549 NSCLC
K-562 leukemia = test system: K-562 leukemia
BT-549 breast = test system: BT-549 breast
HCT-116 colon = test system: HCT-116 colon
SN12C renal = test system: SN12C renal
OVCAR-4 ovarian = test system: OVCAR-4 ovarian
A498 renal = test system: A498 renal
HCT-15 colon = test system: HCT-15 colon
M14 melanoma = test system: M14 melanoma
SK-MEL-5 melanoma = test system: SK-MEL-5 melanoma
MDA-N = test system: MDA-N
TK-10 renal = test system: TK-10 renal
HOP-92 NSCLC = test system: HOP-92 NSCLC
UACC-257 melanoma = test system: UACC-257 melanoma
786-0 renal = test system: 786-0 renal
DU-145 prostate = test system: DU-145 prostate
UACC-62 melanoma = test system: UACC-62 melanoma
HL-60(TB) leukemia = test system: HL-60(TB) leukemia
NCI-H522 lung = test system: NCI-H522 lung
IGROV1 ovarian = test system: IGROV1 ovarian
OVCAR-3 ovarian = test system: OVCAR-3 ovarian
UO-31 renal = test system: UO-31 renal
MALME-3M melanoma = test system: MALME-3M melanoma
NCI-H23 lung = test system: NCI-H23 lung
NCI-H226 lung = test system: NCI-H226 lung
SK-OV-3 ovarian = test system: SK-OV-3 ovarian
HT29 colon = test system: HT29 colon
COLO 205 colon = test system: COLO 205 colon
CAKI-1 renal = test system: CAKI-1 renal
T-47D breast = test system: T-47D breast
SW-620 colon = test system: SW-620 colon
SNB-75 CNS = test system: SNB-75 CNS
NCI-H460 lung = test system: NCI-H460 lung
MDA-MB-231 breast = test system: MDA-MB-231 breast
OVCAR-5 ovarian = test system: OVCAR-5 ovarian
MCF7 breast = test system: MCF7 breast
SF-268 CNS = test system: SF-268 CNS
RXF 393 renal = test system: RXF 393 renal

`O=C(O)/C=N/NC(=S)NC1CCCCC1` gave a TGI (MDA-MB-435) greater than 100 µM, a TGI (SK-MEL-2 melanoma) greater than 100 µM and a TGI (LOX IMVI melanoma) greater than 100 µM. For the same compound, the TGI (OVCAR-8 ovarian) was greater than 100 µM, the TGI (EKVX NSCLC) was greater than 100 µM and the TGI (HOP-62 NSCLC) was greater than 100 µM. For the same compound, the TGI (SNB-19 CNS) was greater than 100 µM, the TGI (KM12 colon) was greater than 100 µM and the TGI (SF-539 CNS) was greater than 100 µM. It also gave a TGI (U251 CNS) greater than 100 µM, a TGI (CCRF-CEM leukemia) greater than 100 µM and a TGI (HS 578T breast) greater than 100 µM. The TGI (SR leukemia) was greater than 100 µM, the TGI (SF-295 CNS) was greater than 100 µM and the TGI (PC-3 prostate) was greater than 100 µM. It also gave a TGI (NCI/ADR-RES ovarian) greater than 100 µM, a TGI (ACHN renal) greater than 100 µM and a TGI (HCC-2998 colon) greater than 100 µM. The TGI (RPMI-8226 leukemia) was greater than 100 µM, the TGI (SK-MEL-28 melanoma) was greater than 100 µM and the TGI (MOLT-4 leukemia) was greater than 100 µM. The TGI (A549 NSCLC) was greater than 100 µM, the TGI (K-562 leukemia) was greater than 100 µM and the TGI (BT-549 breast) was greater than 100 µM. The TGI (HCT-116 colon) was greater than 100 µM, the TGI (SN12C renal) was greater than 100 µM and the TGI (OVCAR-4 ovarian) was greater than 100 µM. It also gave a TGI (A498 renal) greater than 100 µM, a TGI (HCT-15 colon) greater than 100 µM and a TGI (M14 melanoma) greater than 100 µM. It also gave a TGI (SK-MEL-5 melanoma) greater than 100 µM, a TGI (MDA-N) greater than 100 µM and a TGI (TK-10 renal) greater than 100 µM. The TGI (HOP-92 NSCLC) was greater than 100 µM, the TGI (UACC-257 melanoma) was greater than 100 µM and the TGI (786-0 renal) was greater than 100 µM. The TGI (DU-145 prostate) was greater than 100 µM, the TGI (UACC-62 melanoma) was greater than 100 µM and the TGI (HL-60(TB) leukemia) was greater than 100 µM. The TGI (NCI-H522 lung) was greater than 100 µM, the TGI (IGROV1 ovarian) was greater than 100 µM and the TGI (OVCAR-3 ovarian) was greater than 100 µM. The TGI (UO-31 renal) was greater than 100 µM, the TGI (MALME-3M melanoma) was greater than 100 µM and the TGI (NCI-H23 lung) was greater than 100 µM. The TGI (NCI-H226 lung) was greater than 100 µM, the TGI (SK-OV-3 ovarian) was greater than 100 µM and the TGI (HT29 colon) was greater than 100 µM. It also gave a TGI (COLO 205 colon) greater than 100 µM, a TGI (CAKI-1 renal) greater than 100 µM and a TGI (T-47D breast) greater than 100 µM. The TGI (SW-620 colon) was greater than 100 µM, the TGI (SNB-75 CNS) was greater than 100 µM and the TGI (NCI-H460 lung) was greater than 100 µM. For the same compound, the TGI (MDA-MB-231 breast) was greater than 100 µM, the TGI (OVCAR-5 ovarian) was greater than 100 µM and the TGI (MCF7 breast) was greater than 100 µM.
`CCN1C/C(=C\c2cc(OC)c(OC)c(OC)c2)C2=NN(c3ccccc3)C(c3cc(OC)c(OC)c(OC)c3)C2C1` (centres undefined) showed a TGI (MDA-MB-435) of 6.51 µM, a TGI (SK-MEL-2 melanoma) of 31.9 µM and a TGI (LOX IMVI melanoma) of 10.6 µM. The TGI (OVCAR-8 ovarian) was 4.72 µM, the TGI (EKVX NSCLC) was 11.4 µM and the TGI (HOP-62 NSCLC) was 2.51 µM. It also gave a TGI (SNB-19 CNS) of 6 µM, a TGI (KM12 colon) greater than 36 µM and a TGI (SF-539 CNS) of 1.91 µM. For the same compound, the TGI (U251 CNS) was 1.85 µM, the TGI (CCRF-CEM leukemia) was 8.3 µM and the TGI (SF-268 CNS) was 1.58 µM. For the same compound, the TGI (HS 578T breast) was 1.32 µM, the TGI (SR leukemia) was 65.5 µM and the TGI (SF-295 CNS) was 18.5 µM. For the same compound, the TGI (PC-3 prostate) was 2.46 µM, the TGI (NCI/ADR-RES ovarian) was 7.4 µM and the TGI (ACHN renal) was greater than 36 µM. For the same compound, the TGI (HCC-2998 colon) was 2.25 µM, the TGI (SK-MEL-28 melanoma) was 2 µM and the TGI (MOLT-4 leukemia) was greater than 19.8 µM. It also gave a TGI (A549 NSCLC) of 4.9 µM, a TGI (BT-549 breast) of 22 µM and a TGI (HCT-116 colon) of 5.77 µM. It also gave a TGI (SN12C renal) of 11.3 µM, a TGI (OVCAR-4 ovarian) of 24.6 µM and a TGI (A498 renal) of 43.6 µM. It also gave a TGI (HCT-15 colon) of 25.7 µM, a TGI (M14 melanoma) of 6.48 µM and a TGI (SK-MEL-5 melanoma) of 15.5 µM. It also gave a TGI (MDA-N) of 10.8 µM, a TGI (TK-10 renal) of 6.14 µM and a TGI (HOP-92 NSCLC) of 13.5 µM. It also gave a TGI (UACC-257 melanoma) of 12.7 µM, a TGI (786-0 renal) of 1.48 µM and a TGI (DU-145 prostate) of 23.6 µM. For the same compound, the TGI (UACC-62 melanoma) was greater than 54.2 µM, the TGI (HL-60(TB) leukemia) was greater than 23.8 µM and the TGI (NCI-H522 lung) was 3.06 µM. It also gave a TGI (IGROV1 ovarian) of 21.3 µM, a TGI (OVCAR-3 ovarian) greater than 25.1 µM and a TGI (UO-31 renal) of 6.68 µM. It also gave a TGI (MALME-3M melanoma) of 1.64 µM, a TGI (NCI-H23 lung) of 19.2 µM and a TGI (NCI-H226 lung) of 11.1 µM. For the same compound, the TGI (SK-OV-3 ovarian) was 6.38 µM, the TGI (HT29 colon) was 6.8 µM and the TGI (RXF 393 renal) was 2.2 µM. For the same compound, the TGI (COLO 205 colon) was 7.13 µM, the TGI (CAKI-1 renal) was 3.85 µM and the TGI (T-47D breast) was 18 µM. For the same compound, the TGI (SW-620 colon) was greater than 100 µM, the TGI (SNB-75 CNS) was 1.32 µM and the TGI (NCI-H460 lung) was 2.24 µM. It also gave a TGI (MDA-MB-231 breast) of 1.54 µM, a TGI (OVCAR-5 ovarian) of 12.3 µM and a TGI (MCF7 breast) greater than 38.1 µM.
